#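 Grown in 96-well plates, cells were treated for 48 hours with each compound at five concentrations. Insufficient inhibition: endpoint recorded as highest concentration tested. At the GI50, growth is halved.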 Activity calls are given as the source filed them. No stated cut-off is given here; in the data, active = GI50 up to about 1.1 µM and inactive = higher.
# Experiments:
# Assay in all cases: growth of human tumour cells (NCI), 48 h
# HOP-62 = system: HOP-62
# SNB-78 = system: SNB-78
# KM-20L2 = system: KM-20L2
# UACC-257 = system: UACC-257
# SK-MEL-28 = system: SK-MEL-28
# OVCAR-8 = system: OVCAR-8
# DMS-114 = system: DMS-114
# 786-0 = system: 786-0
# COLO 205 = system: COLO 205
# HOP-18 = system: HOP-18
# DMS-273 = system: DMS-273
# LXFL 529 = system: LXFL 529
# TK-10 = system: TK-10
# NCI-H226 = system: NCI-H226
# NCI-H522 = system: NCI-H522
# NCI/ADR-RES = system: NCI/ADR-RES
Structure (SMILES),GI50 (HOP-62),GI50 (SNB-78),GI50 (KM-20L2),GI50 (UACC-257),GI50 (SK-MEL-28),GI50 (OVCAR-8),GI50 (DMS-114),GI50 (786-0),GI50 (COLO 205),GI50 (HOP-18),GI50 (DMS-273),GI50 (LXFL 529),GI50 (TK-10),GI50 (NCI-H226),GI50 (NCI-H522),GI50 (NCI/ADR-RES)
C[N+](C)(C)CC(=O)NC(=O)N/N=C\C(CC#N)CN(Cc1ccccc1)Cc1ccccc1 (stereo not drawn),> 100 µM (inactive),> 100 µM (inactive),> 100 µM (inactive),> 100 µM (inactive),> 100 µM (inactive),> 100 µM (inactive),> 100 µM (inactive),> 100 µM (inactive),> 100 µM (inactive),59.6 µM (inactive),> 100 µM (inactive),> 100 µM (inactive),> 100 µM (inactive),37.5 µM (inactive),> 100 µM (inactive),–
O=C1CCC(NC(=O)Cc2ccc(O)cc2)C(=O)N1 (stereo not drawn),–,> 2500 µM (inactive),> 2500 µM (inactive),> 2500 µM (inactive),> 2500 µM (inactive),> 2500 µM (inactive),> 2500 µM (inactive),–,> 2500 µM (inactive),> 2500 µM (inactive),> 2500 µM (inactive),> 2500 µM (inactive),> 2500 µM (inactive),> 2500 µM (inactive),> 2500 µM (inactive),–
CC1CC(C[N+](=O)[O-])CC2(C1)OCCO2 (stereo not drawn),> 100 µM (inactive),> 100 µM (inactive),> 100 µM (inactive),> 100 µM (inactive),> 100 µM (inactive),> 100 µM (inactive),> 100 µM (inactive),> 100 µM (inactive),> 100 µM (inactive),> 100 µM (inactive),> 100 µM (inactive),> 100 µM (inactive),> 100 µM (inactive),> 100 µM (inactive),> 100 µM (inactive),–
CC[C@H]1CC(=O)c2c(cc3c(c2O)C(=O)c2ccccc2C3=O)[C@@]1(C#N)C(=O)OC(C)(C)C,1.77 µM (inactive),4.89 µM (inactive),4.08 µM (inactive),2.07 µM (inactive),5.92 µM (inactive),2.62 µM (inactive),3.21 µM (inactive),4.15 µM (inactive),1.96 µM (inactive),3.52 µM (inactive),2.42 µM (inactive),3.25 µM (inactive),4.78 µM (inactive),3.32 µM (inactive),2.29 µM (inactive),–
CN(C)CCNC(=O)c1cc2ccccc2c2nc3ccccc3nc12,2.39 µM (inactive),3.55 µM (inactive),0.946 µM (active),1.45 µM (inactive),1.56 µM (inactive),0.771 µM (active),0.83 µM (active),2.43 µM (inactive),0.828 µM (active),5.82 µM (inactive),0.448 µM (active),1.43 µM (inactive),1.23 µM (inactive),0.841 µM (active),1.89 µM (inactive),–
Cn1c(=O)c(C#N)c(O)c2cc3ccccc3nc21,–,> 100 µM (inactive),–,> 100 µM (inactive),> 100 µM (inactive),> 100 µM (inactive),> 100 µM (inactive),–,> 100 µM (inactive),> 100 µM (inactive),> 100 µM (inactive),> 100 µM (inactive),> 100 µM (inactive),> 100 µM (inactive),–,–
O=C(OCCOC(=O)c1ccc2c(c1)C1(SCCS1)c1ccccc1-2)c1ccc2c(c1)C1(SCCS1)c1ccccc1-2,> 100 µM (inactive),> 100 µM (inactive),> 100 µM (inactive),> 100 µM (inactive),> 100 µM (inactive),> 100 µM (inactive),> 100 µM (inactive),–,> 100 µM (inactive),27.5 µM (inactive),–,> 100 µM (inactive),–,> 100 µM (inactive),> 100 µM (inactive),–
CC(=O)OC1CC2CCN3C(=O)c4cc5c(cc4[C@H](C1OC(C)=O)C23)OCO5 (stereo partly drawn),> 100 µM (inactive),> 100 µM (inactive),> 100 µM (inactive),> 100 µM (inactive),> 100 µM (inactive),> 100 µM (inactive),–,> 100 µM (inactive),> 100 µM (inactive),–,> 100 µM (inactive),> 100 µM (inactive),> 100 µM (inactive),> 100 µM (inactive),> 100 µM (inactive),–
O=C1NC(O)CCN1C1OC(CO)C(O)C1O (stereo not drawn),> 228 µM (inactive),> 250 µM (inactive),> 68.7 µM (inactive),> 250 µM (inactive),> 250 µM (inactive),> 250 µM (inactive),> 250 µM (inactive),–,> 250 µM (inactive),> 250 µM (inactive),> 250 µM (inactive),–,–,> 250 µM (inactive),> 216 µM (inactive),> 250 µM (inactive)
CC/C=C\C/C=C\C/C=C\CCCCCCCC(=O)OC [METHYL LINOLENATE],> 100 µM (inactive),–,–,> 100 µM (inactive),> 100 µM (inactive),> 100 µM (inactive),> 100 µM (inactive),–,61.1 µM (inactive),> 100 µM (inactive),> 100 µM (inactive),–,–,> 100 µM (inactive),> 100 µM (inactive),> 100 µM (inactive)

# Reference: ChEMBL document CHEMBL1201862, “PubChem BioAssay data set” (2004)
